For one assay, the target named is CDK6 (Homo sapiens (Human), UniProt Q00534). Put plainly: CDK6 Inhibition Assay. The assay is classed as biochemical. Here is the method: CDK6 Inhibition Assay. […] The same volume of DMSO was adopted as high control (HC). 20 nL compound solution in DMSO (diluted) were dispensed into a new 384-well assay plate by Echo 550. […] Kinase assay buffer supplemented with substrate peptides was employed as low control (LC) to monitor the background. 400 µM ATP was prepared in kinase assay buffer containing and 15 μL of ATP solution was added to each well to start the reaction. The assay plate was incubated at 25° C. for 90 minutes and the reaction was stopped by adding 40 μL of 0.5 M EDTA.

The target in another assay is CDK2 (Homo sapiens (Human), UniProt P24941). Put plainly: CDK2 Inhibition Assay. The class given is biochemical. Here is the method:
CDK2 Inhibition Assay. […] The same volume of DMSO was adopted as high control. 20 nL of the test compound solution in DMSO were dispensed into a new 384-well assay plate by Echo 550. […] Kinase assay buffer supplemented with substrate peptides was employed as low control to monitor the background. 400 µM ATP was prepared in kinase assay buffer containing and 5 μL of ATP solution was added to each well to start the reaction. The assay plate was incubated at 25° C. for 90 minutes and the reaction was stopped by adding 40 μL of 0.5 M EDTA.
Phosphorylated fluorescent-tagged peptides were differentiated from non-phosphorylated peptides by separating using Caliper EZ Reader II and the detection was directly converted to conversion ratio.

A further assay has as its target CDK5 (Homo sapiens (Human), UniProt Q00535). Put plainly: CDK5 Inhibition Assay. The class given is biochemical. The procedure: CDK5 Inhibition Assay. […] The same volume of DMSO was adopted as high control. 20 nL of the test compound solution in DMSO were dispensed into a new 384-well assay plate by Echo 550. […] Kinase assay buffer supplemented with substrate peptides was employed as low control to monitor the background. 40 µM ATP was prepared in kinase assay buffer containing and 5 μL of ATP solution was added to each well to start the reaction. The assay plate was incubated at 25° C. for 90 minutes and the reaction was stopped by adding 40 μL of 0.5 M EDTA.

A further assay concerns the target CDK4 (Homo sapiens (Human), UniProt P11802). Put plainly: CDK4 Inhibition Assay. The class given is biochemical. The procedure: CDK4 Inhibition Assay. […] The same volume of DMSO was adopted as high control (HC). 20 nL of compound solution in DMSO (diluted) were dispensed into anew 384-well assay plate by Echo 550. […] Kinase assay buffer supplemented with substrate peptides was employed as low control (LC) to monitor the background. 400 µM ATP was prepared in kinase assay buffer containing and 15 μL of ATP solution was added to each well to start the reaction. The assay plate was incubated at 25° C. for 90 minutes and the reaction was stopped by adding 40 μL of 0.5 M EDTA.
Phosphorylated fluorescent-tagged peptides were differentiated from non-phosphorylated peptides by separating using Caliper EZ Reader II and the detection was directly converted to conversion ratio (ratio of phosphorylated to non-phosphorylated peptide).
For estimation of IC50, the % substrate conversion values are transformed to % relative activity by applying the following equation: […]

A further assay has as its system HSPCs. The note with it: CDK4/6 dependent subsets of healthy cells such as HSPCs; cited from earlier work.

Several values for one entry are separate records, joined by “and”; a condition that tells them apart may be missing. Equal entries are not always repeated. Where two headings read alike, the source gives them in different places.

Sequence of CDK4 (P11802 whole entry): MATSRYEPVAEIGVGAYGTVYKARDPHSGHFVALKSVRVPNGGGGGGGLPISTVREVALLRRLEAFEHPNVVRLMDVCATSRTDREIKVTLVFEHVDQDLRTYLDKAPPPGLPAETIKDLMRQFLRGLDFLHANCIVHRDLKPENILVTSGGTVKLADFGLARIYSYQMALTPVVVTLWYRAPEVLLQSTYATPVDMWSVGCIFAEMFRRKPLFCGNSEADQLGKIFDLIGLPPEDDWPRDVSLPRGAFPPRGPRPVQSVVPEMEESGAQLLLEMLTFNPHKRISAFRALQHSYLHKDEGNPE
Sequence of CDK4 (P30281 whole entry partner): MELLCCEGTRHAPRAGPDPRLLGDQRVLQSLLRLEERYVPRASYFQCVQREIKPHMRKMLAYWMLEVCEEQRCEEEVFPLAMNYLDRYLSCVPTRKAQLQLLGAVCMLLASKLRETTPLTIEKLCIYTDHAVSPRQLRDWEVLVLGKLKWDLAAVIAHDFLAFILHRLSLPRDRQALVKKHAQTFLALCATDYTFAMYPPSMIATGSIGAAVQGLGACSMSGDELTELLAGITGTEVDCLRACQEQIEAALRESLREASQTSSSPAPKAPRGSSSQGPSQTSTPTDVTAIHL
Sequence of CDK5 (Q00535 whole entry): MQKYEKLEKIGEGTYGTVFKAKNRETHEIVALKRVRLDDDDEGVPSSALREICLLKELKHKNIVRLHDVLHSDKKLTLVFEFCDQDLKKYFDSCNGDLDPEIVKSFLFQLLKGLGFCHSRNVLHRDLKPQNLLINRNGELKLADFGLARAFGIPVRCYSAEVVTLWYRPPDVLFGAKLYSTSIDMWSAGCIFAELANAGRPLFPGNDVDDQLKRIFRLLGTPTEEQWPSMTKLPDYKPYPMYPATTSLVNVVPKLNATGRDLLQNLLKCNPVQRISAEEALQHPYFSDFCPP
Sequence of CDK5 (Q15078 99-307 partner): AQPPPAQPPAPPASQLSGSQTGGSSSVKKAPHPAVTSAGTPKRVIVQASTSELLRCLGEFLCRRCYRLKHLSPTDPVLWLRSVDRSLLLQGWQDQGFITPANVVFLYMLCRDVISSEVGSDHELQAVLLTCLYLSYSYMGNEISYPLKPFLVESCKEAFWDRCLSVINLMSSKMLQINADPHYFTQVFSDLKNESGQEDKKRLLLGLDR
Sequence of CDK6 (Q00534 whole entry): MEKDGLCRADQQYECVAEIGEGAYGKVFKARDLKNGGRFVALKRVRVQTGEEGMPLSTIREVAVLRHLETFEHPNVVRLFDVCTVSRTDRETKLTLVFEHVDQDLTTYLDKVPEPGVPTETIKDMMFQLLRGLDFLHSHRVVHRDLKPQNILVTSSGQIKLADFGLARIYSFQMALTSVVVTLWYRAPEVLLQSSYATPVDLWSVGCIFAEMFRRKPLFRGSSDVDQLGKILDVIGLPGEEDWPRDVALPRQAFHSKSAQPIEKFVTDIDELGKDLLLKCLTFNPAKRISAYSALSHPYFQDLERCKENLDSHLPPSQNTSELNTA
Sequence of CDK6 (P30281 whole entry partner): as the sequence (P30281 whole entry partner) above

Take `CCN1CCC(c2ccc(Nc3ncc(F)c(-c4cc(F)c5nc6n(c5c4)C(C)(C)CC6)n3)nc2)CC1` [Example 3, N-(5-(1-ethylpiperidin-4-yl)pyridin-2-yl)-5-fluoro-4-(5-fluoro-1,1-dimethyl-2,3-dihydro-1H-benzo[d]pyrrolo[1,2-a]imidazol-7-yl)pyrimidin-2-amine, reference compound]: the IC50 is 1.93 nM at CDK6; 114 nM and 91 nM on CDK2 (read-out: CDK2 IC50); 38.3 nM at CDK5; 0.08 nM against CDK4.
With `CC1(C)CCc2nc3c(F)cc(-c4nc(Nc5ccc6c(n5)CCN(C(=O)CO)C6)ncc4F)cc3n21` [Example 5, 1-(2-(5-fluoro-4-(5-fluoro-1,1-dimethyl-2,3-dihydro-1H-benzo[d]pyrrolo[1,2-a]imidazol-7-yl)pyrimidin-2-ylamino)-7,8-dihydro-1,6-naphthyridin-6 (5H)-yl)-2-hydroxyethanone, reference compound], the IC50 against CDK6 turned out to be 1.87 nM; at CDK2 (read-out: CDK2 IC50), 17.6 nM; on CDK5 it was 36.8 nM; at CDK4, 0.12 nM.
In the case of `CN(C)[C@H]1CCN(C(=O)c2ccc(Nc3ncc(F)c(-c4cc(F)c5nc6n(c5c4)C(C)(C)CC6)n3)nc2)C1` [Example 6, (S)-(3-(dimethylamino)pyrrolidin-1-yl)(6-(5-fluoro-4-(5-fluoro-1,1-dimethyl-2,3-dihydro-1H-benzo[d]pyrrolo[1,2-a]imidazol-7-yl)pyrimidin-2-ylamino)pyridin-3-yl)methanone], the IC50 against CDK6 came out at 1.19 nM; on CDK2, 5.62 nM; at CDK2 (read-out: CDK2 IC50), 20.4 nM; on CDK5, 19.1 nM; against CDK4, 0.2 nM.
In the same order, the values of `CN(C)[C@H]1CCN(c2ccc(Nc3ncc(F)c(-c4cc(F)c5nc6n(c5c4)C(C)(C)CC6)n3)nc2)C1` [Example 7, (S)—N-(5-(3-(dimethylamino)pyrrolidin-1-yl)pyridin-2-yl)-5-fluoro-4-(5-fluoro-1,1-dimethyl-2,3-dihydro-1H-benzo[d]pyrrolo[1,2-a]imidazol-7-yl)pyrimidin-2-amine] are 3.96 nM, 16.1 nM, 65.5 nM, 50.6 nM and 0.18 nM.
In the same order, the values of `CCN1CCC(COc2ccc(Nc3cc(-c4cc(F)c5nc6n(c5c4)C(C)(C)CC6)c(F)cn3)nc2)CC1` [Example 9, N-(5-((1-ethylpiperidin-4-yl)methoxy)pyridin-2-yl)-5-fluoro-4-(5-fluoro-1,1-dimethyl-2,3-dihydro-1H-benzo[d]pyrrolo[1,2-a]imidazol-7-yl)pyridin-2-amine] are 2.9 nM, 14.7 nM, 24.7 nM, 11.3 nM and 0.1 nM.
`CN1CCC(Oc2ccc(Nc3ncc(F)c(-c4cc(F)c5nc6n(c5c4)C(C)(C)CC6)n3)nc2)CC1` [Example 10, 5-fluoro-4-(5-fluoro-1,1-dimethyl-2,3-dihydro-1H-benzo[d]pyrrolo[1,2-a]imidazol-7-yl)-N-(5-(1-methylpiperidin-4-yloxy)pyridin-2-yl)pyrimidin-2-amine]: the IC50 against CDK6 was 2.46 nM; on CDK2 (read-out: CDK2 IC50) it was 64.1 nM; on CDK5, 136 nM; against CDK4, 0.26 nM.
In the same order, the values of `CC1(C)CCc2nc3c(F)cc(-c4nc(Nc5ccc(OCC6CCN(CCCO)CC6)cn5)ncc4F)cc3n21` [Example 11, 3-(4-((6-(5-fluoro-4-(5-fluoro-1,1-dimethyl-2,3-dihydro-1H-benzo[d]pyrrolo[1,2-a]imidazol-7-yl)pyrimidin-2-ylamino)pyridin-3-yloxy)methyl)piperidin-1-yl)propan-1-ol] are 1.02 nM, 44.9 nM, 128 nM and 0.11 nM.
In the same order, the values of `CN1CCC(COc2ccc(Nc3ncc(F)c(-c4cc(F)c5nc6n(c5c4)C(C)(C)CC6)n3)nc2)CC1` [Example 12, 5-fluoro-4-(5-fluoro-1,1-dimethyl-2,3-dihydro-1H-benzo[d]pyrrolo[1,2-a]imidazol-7-yl)-N-(5-((1-methylpiperidin-4-yl)methoxy)pyridin-2-yl)pyrimidin-2-amine] are 1.89 nM, 55.2 nM, 159 nM and 0.11 nM.
In the same order, the values of `CN1CCC(OCc2ccc(Nc3ncc(F)c(-c4cc(F)c5nc6n(c5c4)C(C)(C)CC6)n3)nc2)CC1` [Example 13, 5-fluoro-4-(5-fluoro-1,1-dimethyl-2,3-dihydro-1H-benzo[d]pyrrolo[1,2-a]imidazol-7-yl)-N-(5-((1-methylpiperidin-4-yloxy)methyl)pyridin-2-yl)pyrimidin-2-amine] are 3.92 nM, 174 nM, 433 nM and 0.25 nM.
As to `CC1(C)CCc2nc3c(F)cc(-c4nc(Nc5ccc(OC6CCN(CCO)CC6)cn5)ncc4F)cc3n21` [Example 14, 2-(4-(6-(5-fluoro-4-(5-fluoro-1,1-dimethyl-2,3-dihydro-1H-benzo[d]pyrrolo[1,2-a]imidazol-7-yl)pyrimidin-2-ylamino)pyridin-3-yloxy)piperidin-1-yl)ethanol], the IC50 against CDK6 is 2.72 nM; at CDK2 (read-out: CDK2 IC50) it was 70.3 nM; at CDK5, 213 nM; against CDK4, 0.25 nM.
For the molecule `CCN1CCN(c2ccc(Nc3ncc(F)c(-c4cc(F)c5nc6n(c5c4)C(C)(C)CC6)n3)nc2)CC1` [Example 15, N-(5-(4-ethylpiperazin-1-yl)pyridin-2-yl)-5-fluoro-4-(5-fluoro-1,1-dimethyl-2,3-dihydro-1H-benzo[d]pyrrolo[1,2-a]imidazol-7-yl)pyrimidin-2-amine, reference compound], the IC50 is 0.88 nM on CDK6; 117 nM and 21.6 nM at CDK2 (read-out: CDK2 IC50); 46.8 nM on CDK5; 0.07 nM against CDK4.
`CCN1CCN(Cc2ccc(Nc3ncc(F)c(-c4cc(F)c5nn6c(c5c4)CCC6)n3)nc2)CC1` [Example 16, N-(5-((4-ethylpiperazin-1-yl)methyl)pyridin-2-yl)-5-fluoro-4-(6-fluoro-2,3-dihydro-1H-pyrrolo[1,2-b]indazol-8-yl)pyrimidin-2-amine]: the IC50 against CDK6 is 93.7 nM; at CDK2 (read-out: CDK2 IC50) it was more than 10000 nM; against CDK5, more than 10000 nM; on CDK4, 9.46 nM.
For `CN1CCN(c2ccc(Nc3ncc4cc5n(c4n3)C3(CCCCC3)CNC5=O)nc2)CC1` [Example G1T28], the cell cycle arrest entry in the assay with HSPCs is “transient cell cycle arrest”.
Consider `CC(=O)c1c(C)c2cnc(Nc3ccc(N4CCNCC4)cn3)nc2n(C2CCCC2)c1=O` [PD-0332991], for which the cell cycle arrest entry with HSPCs is given as “transient cell cycle arrest”.

Values taken from patent publication US11351170B2, “Substituted pyrimidines as CDK4/6 inhibitors” (priority 2017, dated 2022).
